Experimental data from patent US12570643B2, “3-aryloxy-3-five-membered heteroaryl propylamine compound, and crystal form and use thereof” (Shanghai Leado Pharmatech Co. Ltd., priority 2019, dated 2026).

Assays:
[1] = target: T1, TRPA1 (Mus musculus, UniProt Q8BLA8); assay: TRPA1 inhibitory activity, IonWorks Barracuda (IWB) automatic patch clamp detection; assay type: cell-based; settings: automatic patch clamp
T1 construct: expressed in transfected cells; host or cells: HEK293 cells stably expressing TRPA1
T1 sequence (Q8BLA8 whole entry): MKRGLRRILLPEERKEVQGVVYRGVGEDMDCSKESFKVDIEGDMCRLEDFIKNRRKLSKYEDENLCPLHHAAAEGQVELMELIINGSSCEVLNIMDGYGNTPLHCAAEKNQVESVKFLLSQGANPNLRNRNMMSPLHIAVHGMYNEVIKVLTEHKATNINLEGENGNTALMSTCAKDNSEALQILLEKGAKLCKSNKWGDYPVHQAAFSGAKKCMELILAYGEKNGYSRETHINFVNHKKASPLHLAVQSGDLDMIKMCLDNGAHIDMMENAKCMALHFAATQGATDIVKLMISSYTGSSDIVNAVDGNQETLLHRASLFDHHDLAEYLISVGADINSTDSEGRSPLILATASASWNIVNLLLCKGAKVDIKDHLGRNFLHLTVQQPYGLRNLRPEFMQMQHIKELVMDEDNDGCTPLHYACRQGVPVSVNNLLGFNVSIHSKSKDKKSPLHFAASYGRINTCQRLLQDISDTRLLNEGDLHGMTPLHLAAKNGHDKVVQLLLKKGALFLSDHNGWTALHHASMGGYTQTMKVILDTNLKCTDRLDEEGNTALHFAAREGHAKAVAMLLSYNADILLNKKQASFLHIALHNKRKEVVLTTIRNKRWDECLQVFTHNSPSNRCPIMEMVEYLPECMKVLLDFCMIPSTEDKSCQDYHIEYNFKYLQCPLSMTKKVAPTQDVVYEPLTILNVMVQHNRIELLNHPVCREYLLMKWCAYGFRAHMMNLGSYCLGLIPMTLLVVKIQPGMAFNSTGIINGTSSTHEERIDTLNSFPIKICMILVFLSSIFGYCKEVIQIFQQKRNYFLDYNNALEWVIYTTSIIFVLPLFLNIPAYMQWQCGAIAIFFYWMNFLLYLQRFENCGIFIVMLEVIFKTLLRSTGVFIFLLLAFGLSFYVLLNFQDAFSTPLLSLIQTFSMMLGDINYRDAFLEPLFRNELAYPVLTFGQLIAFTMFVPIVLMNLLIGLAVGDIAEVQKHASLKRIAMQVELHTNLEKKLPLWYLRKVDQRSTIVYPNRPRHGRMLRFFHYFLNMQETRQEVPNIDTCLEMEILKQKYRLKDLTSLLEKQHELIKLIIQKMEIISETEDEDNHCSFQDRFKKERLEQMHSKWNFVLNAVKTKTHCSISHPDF
Method: In this example, the compounds prepared in some examples of the present invention (shown in Table 1) were tested for their inhibitory activity on the transient receptor potential channel protein TRPA1. Wherein, compound of formula A (WO2010075353) was used as positive control: […]
Test method by using IonWorks Barracuda (IWB) automatic patch clamp detection: HEK293 cells stably expressing TRPA1 were placed in a 37° C., 5% CO2 incubator and incubated with DMEM medium containing 15 μg/mL Blasticidin S HCl, 200 μg/mL Hygromycin B and 10% FBS serum in a T175 culture flask. When the cell density grew to […], the culture medium was removed, the cells were washed with calcium and magnesium free phosphate buffered saline (PBS), and 3 mL of Trypsin was added and digested for 2 minutes, and 7 mL of culture medium was added to terminate the digestion. […]
Data recording and current amplitude measurement and export were completed by IWB Software (version 2.5.3, Molecular Devices Corporation, Union City, CA). The statistics of the well with a sealing impedance lower than 20 M Ω were not recorded. The original current data was corrected by software, the TRPA1 current amplitude was measured in +100 mV. […] The dose-effect curve and IC50 of compounds were fitted and calculated by GraphPad Prism 5.02 (GraphPad Software, San Diego, CA).

[2] = system: SNL model in rat; assay: SNL model in rat, mechanical hyperalgesia test; assay type: in vivo, SD rats; settings: 10 mg/kg intragastric, 1 hour after administration, hydrochloride used; control group 3.967 ± 0.775
Method: SD rats were taken for surgery, male, SPF grade, mass 150 g-180 g. The surgical procedure was performed aseptically. The animals were anesthetized with sodium pentobarbital (50 mg/kg, intraperitoneal injection). The surgical area of the waist of animals was shaved, and the skin was disinfected three times with iodophor and 70% ethanol. Start the operation after the skin was dry. A longitudinal incision was made in the posterior part of the sacral bone of the animal's waist with a scalpel to expose the left paravertebral muscles, and the muscle tissue was separated with a distractor to expose the vertebra. The left spinal nerves L5 and L6 were separated, ligated with 6-0 silk thread, and the wounds were sutured. After the surgery, the animals were placed on an electric blanket and injected subcutaneously with 5 mL normal saline to prevent dehydration. When the animal was completely awake (free to move), put the animal back into the cage.
After the surgery, the animals were adapted in the experimental environment for 15 minutes/day for 3 days.
After administration, mechanical hyperalgesia test was performed. The rats were placed individually in a plexiglas box with a grid at the bottom of the box to ensure that the feet of the rats can be tested. Rats would adapt for 15 minutes before the test. […] The rapid paw withdrawal of the animal during the test was recorded as a pain response. The paw withdrawal of the animal when the test fiber left the animal's skin was also recorded as a pain response. If the animal moved or walked, it will not be recorded as a pain response, the test should be repeated. […]
Mechanical hyperalgesia was expressed as the paw withdrawal threshold (PWT) in the behavioral test of rats, which was calculated according to the following equation: 50% response threshold (g)=(10(^Xf+kδ))/10,000 • Xf=the final test fiber value used in the test • K=table value • δ=Average difference
Data were collected using Excel software and analyzed using Prism 6.01 (Graph pad software, Inc.) software.

[3] = system: postoperative pain model in rat; assay: Postoperative pain model in rat, mechanical hyperalgesia test; assay type: in vivo; settings: 10 mg/kg intramuscular injection
Method: Injection of compound I-1: 36.13 mg of compound I-1 prepared in Example 2 was weighed and added into 3.140 mL of normal saline, and well mixed by vortex;
The solvent of the test compound I-1 was normal saline, the administration dose was 10 mg/kg, and the administration method was intramuscular injection. 36.13 mg of the compound I-1 was weighed and added into 3.140 mL normal saline, and well mixed by vortex. The reference compound used in the experiment was bupivacaine injection, purchased from Shanghai Zhaohui Pharmaceutical Co., Ltd., in a dose of 10 mg/kg via intramuscular injection.
Aseptic operation was performed during surgery, surgical instruments (scissors, forceps, scalpel, surgical cotton, suture thread) were disinfected before the operation. The rats were anesthetized with sodium pentobarbital (50 mg/kg, intraperitoneal injection), and the toes of the rats were squeezed to confirm that the animals were completely anesthetized before the surgery. Ophthalmic ointment was applied to the animal's eyes to prevent the animal's cornea from drying out. Iodophor and 70% ethanol were used to disinfect the skin of the surgery area on the sole of the left hind foot three times, and the surgery was started after the skin was dried. Starting at 0.5 cm from the heel, a 1 cm long incision was made longitudinally toward the toe. After cutting the skin, the flexor digitorum brevis was lifted to make longitudinal blunt injury. After pressing to stop the bleeding, the wound was sutured. The surgical instruments were cleaned and sterilized with hot bead sterilizer. After the surgery, the animals were placed on an electric blanket and injected subcutaneously with 5 mL normal saline to prevent dehydration. When the animal was completely awake (free to move), put the animal back into the cage. […]
The rat was placed alone in a plexiglass box with a grid on the bottom of the box to ensure that the rat's feet can be tested. […] During the test, the animal's rapid foot shrinkage was recorded as a pain response. The animal's foot shrinkage when the test fiber left the animal's skin was also recorded as a pain response. If the animal moved or walked, it would not be recorded as the pain response, the test should be repeated. […] The mechanical hyperalgesia test results are recorded in the table of FIG. 10, in which pain response is indicated with an “x” and no pain response is indicated with an “o.”
Mechanical hyperalgesia was expressed as the paw withdrawal threshold (PWT) in the behavioral test of rats, which was calculated according to the following equation: 50% response threshold (g)=(10(Xf+k))/10,000 • Xf=the final test fiber value used in the test • K=table value (Chaplan et al. 1994, page 62) • □=Average difference 5. […]

- activity ratio (IC50 of compound C2/IC50 of compound I-1) [1]: about 6.3
Compound: CNCC[C@@H](Oc1cccc2ccoc12)c1cccs1 [Compound I-1, (R)-3-(benzofuran-7-yloxy)-N-methyl-3-(thiophen-2-yl)propan-1-amine]
- PWT [2]: 7.869 ± 2.846 g
- PWT ([3]; 1 hour after administration, Normal Saline 3.561): 5.885 g
- PWT (g) ([3]; 2 hours after administration, Normal Saline 3.382): 5.135. g
